# Laboratory results from US5747320A (The United States of America, as represented by the …, priority 1996, dated 1998).
# Entries after “also recorded” stand apart in the source; their conditions may differ.
# Legend:
# [1] = test system: purified β-glucosidase from Candida peltata Y-21603; test: Inhibition by glucose, cellobiose and other sugars; inhibitors and activators (pNPβG hydrolysis assay); type: biochemical
# Description: FIG. 4. […] Reaction time was 15 min at pH 5.0 and 50° C. Enzyme used, 39 mU/ml. pNPβG used: .smallcircle., 0.4 mM; .circle-solid., 0.8 mM; .tangle-solidup., 1.2 mM; Δ, 1.6 mM; .quadrature., 2.0 mM; .box-solid., 2.4 mM.
# After incubation at 50° C. for 30 min, the reaction was stopped by adding ice-cold 0.5M Na2 CO3 (1 ml) and the color developed as a result of p-nitrophenol (pNP) liberation was measured at 405 nm.
# Inhibition by glucose cellobiose and other sugars. The study of inhibition by glucose was performed with pNPβG as substrate.
# Inhibitors and activators.
# [2] = test system: purified β-glucosidase from Candida peltata Y-21603; test: Substrate specificity and kinetic analysis (Lineweaver-Burk); type: biochemical; conditions: for Vmax / Km: pH 5.0 and 50° C.; for Km: read-out: apparent Km; for activity on substrate (relative rate of hydrolysis): disaccharides; for relative rate of hydrolysis, of that of pNPβG: aryl-glycosides
# From the text: Substrate specificity and kinetic analysis. Relative rates of hydrolysis of various substrates by the purified β-glucosidase were studied. The enzyme could hydrolyze pNPβG and cellobiose effectively. Salicin was hydrolyzed at 34% of that of cellobiose. The purified enzyme had very little (<5%) or no activity on lactose, maltose, sucrose and trehalose. It also had no or very little activity on p-nitrophenyl-α-D-glucoside, p-nitrophenyl-β-D-xyloside, p-nitrophenyl-β-D-cellobioside, p-nitrophenyl-α-L-arabinofuranoside, and p-nitrophenyl-β-D-glucuronide (<5%). p-Nitrophenyl-β-D-galactoside was hydrolyzed at 6% of that of pNPβG. The reaction kinetics of the purified enzyme were determined from Lineweaver-Burk plots using pNPβG and cellooligosaccharides (cellobiose to cellohexaose) as substrates under optimal conditions (pH 5.0 and 50° C.).
# Candida peltata Y-21603 = test: Growth and β-glucosidase production on various carbon sources; type: cell-based; conditions: 28° C., 4 days
# Description: Yeast strain, medium and culture conditions. The yeast strain (C. peltata NRRL Y-21603, also available as NRRL Y-6888) used in this study was obtained from the ARS culture collection, NCAUR, Peoria, Ill. The medium ([…] et al., 1982, Biotechnol. […] Solution A was a trace mineral solution having the following ingredients (per L): 1.1 g CaO, 0.4 g ZnO, 5.4 g FeCl3 ·6H2 O, 0.25 g CuSO4.5H2 O, 0.24 g CoCl2.6H2 O, 0.06 g H3 BO3 and 13 ml concentrated HCl. Solution B (per L) was composed of 10.1 g MgO and 45 ml concentrated HCl. Solution C (per L) contained 64 g urea, 12 g KH2 PO4, and 1.8 g Na2 HPO4. Substrates were sterilized separately. […] After 4 days, the cells were removed from the culture broth by centrifugation (18,000×g, 20 min). The resulting supernatant solution was used as the crude enzyme preparation. […] Analytical methods. […] Glucose was a good growth substrate for production of β-glucosidase.
# [3] = test system: purified β-glucosidase from Candida peltata Y-21603; test: Inhibition by glucose, cellobiose and other sugars; inhibitors and activators (pNPβG hydrolysis assay); type: biochemical; remark: listed apart in the source
compound,measurement,setting,value
"O[C@H](CS)[C@H](O)CS (racemic) [DTT, dithiothreitol]",effect on enzyme activity,[1]; 10 mM,not affected
[Ca+2] [Ca^2+],dependence of enzyme activity on metal ion,[1]; 5 mM,not dependent
"OC[C@H]1O[C@@H](O[C@H]2[C@H](O)[C@@H](O)C(O)O[C@@H]2CO)[C@H](O)[C@@H](O)[C@@H]1O (stereo partly drawn) [Cellobiose, cellobiose]",Vmax,[2],75 μmol.min^-1.mg^-1 protein
same,Km,[2],66 mM
same,Growth (A660),Candida peltata Y-21603; carbon source 1% w/v,8.7
same,substrate inhibition,[3]; 15% cellobiose,no inhibition; also recorded: not observed at all; also recorded: not inhibited at all
[Co+2] [Co^2+],dependence of enzyme activity on metal ion,[1]; 0.5 mM,not dependent
OC[C@H]1OC(O)[C@H](O)[C@@H](O)[C@H]1O (stereo partly drawn) [Galactose],inhibition of β-glucosidase activity,[1]; sugar at 56 mM,did not inhibit
"OC[C@H]1OC(O)[C@H](O)[C@@H](O)[C@@H]1O (stereo partly drawn) [Glucose, glucose]",Growth (A660),Candida peltata Y-21603; carbon source 1% w/v,10.7
same,Growth (A660),Candida peltata Y-21603; carbon source 2% w/v,13.7
same,Growth (A660),Candida peltata Y-21603; carbon source 4% w/v,13.3
same,Growth (A660),Candida peltata Y-21603; carbon source 8% w/v,9.7
same,Growth (A660),Candida peltata Y-21603; carbon source 12% w/v,7.9
same,Growth (A660),Candida peltata Y-21603; carbon source 20% w/v,7.3
O=C[C@H](O)[C@@H](O)[C@@H](O)CO [L-Arabinose],Growth (A660),Candida peltata Y-21603; carbon source 1% w/v,9.4
"OC[C@H]1O[C@@H](O[C@H]2[C@H](O)[C@@H](O)C(O)O[C@@H]2CO)[C@H](O)[C@@H](O)[C@H]1O (stereo partly drawn) [Lactose, lactose]",inhibition of β-glucosidase activity,[1]; sugar at 29 mM,did not inhibit
same,activity on substrate (relative rate of hydrolysis),[2]; purified enzyme,< 5%
same,Growth (A660),Candida peltata Y-21603; carbon source 1% w/v,2.5
"OC[C@H]1O[C@H](O[C@H]2[C@H](O)[C@@H](O)[C@H](O)O[C@@H]2CO)[C@H](O)[C@@H](O)[C@@H]1O [Maltose, maltose]",activity on substrate (relative rate of hydrolysis),[2]; purified enzyme,< 5%
same,Growth (A660),Candida peltata Y-21603; carbon source 1% w/v,9.3
[Mg+2] [Mg^2+],dependence of enzyme activity on metal ion,[1]; 5 mM,not dependent
[Mn+2] [Mn^2+],dependence of enzyme activity on metal ion,[1]; 5 mM,not dependent
OCc1ccccc1O[C@@H]1O[C@H](CO)[C@@H](O)[C@H](O)[C@H]1O [Salicin],"relative rate of hydrolysis, of that of cellobiose",[2]; purified enzyme,34%
"OC[C@H]1O[C@@](CO)(O[C@H]2O[C@H](CO)[C@@H](O)[C@H](O)[C@H]2O)[C@@H](O)[C@@H]1O [Sucrose, sucrose]",inhibition of β-glucosidase activity,[1]; sugar at 29 mM,did not inhibit
same,activity on substrate (relative rate of hydrolysis),[2]; purified enzyme,< 5%
same,Growth (A660),Candida peltata Y-21603; carbon source 1% w/v,9.0
"OC1OC[C@@H](O)[C@H](O)[C@H]1O (stereo partly drawn) [Xylose, xylose]",inhibition of β-glucosidase activity,[1]; sugar at 56 mM,did not inhibit
same,Growth (A660),Candida peltata Y-21603; carbon source 1% w/v,11.3
OC[C@H]1O[C@@H](O[C@H]2[C@H](O)[C@@H](O)[C@H](O[C@H]3[C@H](O)[C@@H](O)[C@H](O[C@H]4[C@H](O)[C@@H](O)[C@H](O[C@H]5[C@H](O)[C@@H](O)[C@H](O[C@H]6[C@H](O)[C@@H](O)C(O)O[C@@H]6CO)O[C@@H]5CO)O[C@@H]4CO)O[C@@H]3CO)O[C@@H]2CO)[C@H](O)[C@@H](O)[C@@H]1O (stereo partly drawn) [cellohexaose],Vmax,[2],5 μmol.min^-1.mg^-1 protein
same,Km,[2],18 mM
OC[C@H]1O[C@@H](O[C@H]2[C@H](O)[C@@H](O)[C@H](O[C@H]3[C@H](O)[C@@H](O)[C@H](O[C@H]4[C@H](O)[C@@H](O)[C@H](O[C@H]5[C@H](O)[C@@H](O)C(O)O[C@@H]5CO)O[C@@H]4CO)O[C@@H]3CO)O[C@@H]2CO)[C@H](O)[C@@H](O)[C@@H]1O (stereo partly drawn) [cellopentaose],Vmax,[2],8 μmol.min^-1.mg^-1 protein
same,Km,[2],21 mM
OC[C@H]1O[C@@H](O[C@H]2[C@H](O)[C@@H](O)[C@H](O[C@H]3[C@H](O)[C@@H](O)[C@H](O[C@H]4[C@H](O)[C@@H](O)C(O)O[C@@H]4CO)O[C@@H]3CO)O[C@@H]2CO)[C@H](O)[C@@H](O)[C@@H]1O (stereo partly drawn) [cellotetraose],Vmax,[2],16 μmol.min^-1.mg^-1 protein
same,Km,[2],35 mM
OC[C@H]1O[C@@H](O[C@H]2[C@H](O)[C@@H](O)[C@H](O[C@H]3[C@H](O)[C@@H](O)C(O)O[C@@H]3CO)O[C@@H]2CO)[C@H](O)[C@@H](O)[C@@H]1O (stereo partly drawn) [cellotriose],Vmax,[2],32 μmol.min^-1.mg^-1 protein
same,Km,[2],39 mM
CCO [ethanol],increase of pNPβG hydrolysis (initial activity),"[1]; 0.75% (v/v) ethanol, pH 5.0, 50° C., 30 min reaction",11%
O=C(CO)[C@@H](O)[C@H](O)[C@H](O)CO [fructose],inhibition of β-glucosidase activity,[1]; sugar at 56 mM,did not inhibit
OC[C@H]1OC(O)[C@@H](O)[C@@H](O)[C@@H]1O (stereo partly drawn) [mannose],inhibition of β-glucosidase activity,[1]; sugar at 56 mM,did not inhibit
O=[N+]([O-])c1ccc(O[C@@H]2O[C@H](CO)[C@H](O)[C@H](O)[C@H]2O)cc1 [p-Nitrophenyl-β-D-galactoside],"relative rate of hydrolysis, of that of pNPβG",[2]; purified enzyme,6%
O=[N+]([O-])c1ccc(O[C@H]2O[C@H](CO)[C@@H](O)[C@H](O)[C@H]2O)cc1 [p-nitrophenyl-α-D-glucoside],"relative rate of hydrolysis, of that of pNPβG",[2]; purified enzyme,< 5%
O=[N+]([O-])c1ccc(O[C@@H]2O[C@@H](CO)[C@H](O)[C@H]2O)cc1 [p-nitrophenyl-α-L-arabinofuranoside],"relative rate of hydrolysis, of that of pNPβG",[2]; purified enzyme,< 5%
O=[N+]([O-])c1ccc(O[C@@H]2O[C@H](CO)[C@@H](O[C@@H]3O[C@H](CO)[C@@H](O)[C@H](O)[C@H]3O)[C@H](O)[C@H]2O)cc1 [p-nitrophenyl-β-D-cellobioside],"relative rate of hydrolysis, of that of pNPβG",[2]; purified enzyme,< 5%
O=C(O)[C@H]1O[C@@H](Oc2ccc([N+](=O)[O-])cc2)[C@H](O)[C@@H](O)[C@@H]1O [p-nitrophenyl-β-D-glucuronide],"relative rate of hydrolysis, of that of pNPβG",[2]; purified enzyme,< 5%
O=[N+]([O-])c1ccc(O[C@@H]2OC[C@@H](O)[C@H](O)[C@H]2O)cc1 [p-nitrophenyl-β-D-xyloside],"relative rate of hydrolysis, of that of pNPβG",[2]; purified enzyme,< 5%
"O=C(O)c1cc[c]([Hg][Cl])cc1 [pCMB, p-chloromercuribenzoic acid]",effect on enzyme activity,[1]; 0.2 mM,not affected; also recorded: unaffected
"O=[N+]([O-])c1ccc(O[C@@H]2O[C@H](CO)[C@@H](O)[C@H](O)[C@H]2O)cc1 [pNPβG, p-nitrophenyl β-D-glucoside]",Vmax,[2],221 μmol.min^-1.mg^-1 protein
same,Km,[2],2.3 mM
same,substrate inhibition,[3]; 40 mM pNPβG,not observed at all; also recorded: not inhibited at all
OC[C@H]1O[C@H](O[C@H]2O[C@H](CO)[C@@H](O)[C@H](O)[C@H]2O)[C@H](O)[C@@H](O)[C@@H]1O [trehalose],activity on substrate (relative rate of hydrolysis),[2]; purified enzyme,< 5%
arabinose,inhibition of β-glucosidase activity,[1]; sugar at 56 mM,did not inhibit
